In ChEMBL document CHEMBL4346739, “Design, synthesis, and evaluation of novel N-(4-phenoxybenzyl)aniline derivatives targeting acetylcholinesterase, β-amyloid aggregation and oxidative stress to treat Alzheimer's disease” (Bioorg Med Chem, 2019):
Calls of active or inactive are those of the source. The rule behind the calls is not given here.

Tests used:
Cholinesterase = Cholinesterase (Homo sapiens, UniProt P06276); assay: Inhibition of human plasma BChE using butyrylthiocholine iodide as substrate preincubated for 10 mins followed by substrate addition and measured at 6 mins by Ellman's method
Cholinesterase, sequence (P06276 whole entry): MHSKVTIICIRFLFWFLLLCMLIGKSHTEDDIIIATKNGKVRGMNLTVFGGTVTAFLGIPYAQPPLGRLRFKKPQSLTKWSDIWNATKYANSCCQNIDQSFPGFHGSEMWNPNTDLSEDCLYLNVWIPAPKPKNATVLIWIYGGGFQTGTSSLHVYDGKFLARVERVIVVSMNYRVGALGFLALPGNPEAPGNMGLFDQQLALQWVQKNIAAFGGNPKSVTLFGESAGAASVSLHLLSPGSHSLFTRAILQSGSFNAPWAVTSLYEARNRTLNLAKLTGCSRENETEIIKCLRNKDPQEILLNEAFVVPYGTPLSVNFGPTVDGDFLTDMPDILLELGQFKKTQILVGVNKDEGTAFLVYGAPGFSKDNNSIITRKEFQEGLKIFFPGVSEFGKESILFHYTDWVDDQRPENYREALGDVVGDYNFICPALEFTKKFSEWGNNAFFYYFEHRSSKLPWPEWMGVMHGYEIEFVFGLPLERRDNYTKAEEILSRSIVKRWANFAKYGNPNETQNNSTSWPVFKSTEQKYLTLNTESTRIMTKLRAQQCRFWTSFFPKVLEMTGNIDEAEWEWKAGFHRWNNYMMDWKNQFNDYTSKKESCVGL

[1] = Octanol/water partition co-efficient, log P of compound at pH 7.4 by shake-flask method; format: physicochemical
[2] = Permeability of compound at 25 ug/ml at pH 7.4 incubated for 18 hrs by PAMPA-BBB assay
Acetylcholinesterase [3] = molecular target: T1, Acetylcholinesterase (Homo sapiens, UniProt P22303); assay: Inhibition of human erythrocyte AChE using acetylthiocholine iodide as substrate preincubated for 10 mins followed by substrate addition and measured for 6 mins by Ellman's method
T1 sequence (P22303 whole entry): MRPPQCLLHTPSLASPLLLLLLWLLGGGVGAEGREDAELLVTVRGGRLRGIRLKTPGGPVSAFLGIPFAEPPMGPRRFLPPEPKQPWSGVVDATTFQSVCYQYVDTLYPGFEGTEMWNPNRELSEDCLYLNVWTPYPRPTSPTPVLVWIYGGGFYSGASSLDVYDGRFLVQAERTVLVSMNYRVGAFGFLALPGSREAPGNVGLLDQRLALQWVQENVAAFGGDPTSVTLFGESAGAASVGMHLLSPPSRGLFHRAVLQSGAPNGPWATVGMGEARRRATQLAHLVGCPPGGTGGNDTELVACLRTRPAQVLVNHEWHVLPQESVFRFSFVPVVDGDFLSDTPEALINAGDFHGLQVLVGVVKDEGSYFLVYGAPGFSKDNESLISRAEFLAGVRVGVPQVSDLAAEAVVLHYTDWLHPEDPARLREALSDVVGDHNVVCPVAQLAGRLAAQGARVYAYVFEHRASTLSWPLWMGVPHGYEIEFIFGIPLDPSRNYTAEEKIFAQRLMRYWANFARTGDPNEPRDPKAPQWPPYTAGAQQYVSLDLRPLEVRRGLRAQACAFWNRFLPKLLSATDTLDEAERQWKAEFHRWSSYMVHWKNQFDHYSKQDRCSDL

Mus musculus [4] = assay: Cognitive enhancing effect in albino mouse assessed as reversal of scopolamine-induced reduction in spontaneous alteration score at 5 mg/kg, po administered once daily for 7 days followed by scopolamine challenge for 5 mins prior to test and measured on day 7 by Y-maze test; format: functional, organism-based
Mus musculus [5] = assay: Reversal of scopolamine-induced amnesic effect in albino mouse assessed as increase in transfer latency time of retention trial at 5 mg/kg, po administered once daily for 7 days followed by scopolamine challenge and subsequent training session for 5 mins by passive avoidance test; format: functional, organism-based
Mus musculus [6] = assay: Reversal of scopolamine-induced amnesic effect in albino mouse assessed as increase in transfer latency time of acquisition trial at 5 mg/kg, po administered once daily for 7 days followed by scopolamine challenge and subsequent training session for 5 mins by passive avoidance test; format: functional, organism-based
Mus musculus [7] = assay: Antialzheimer activity in albino mouse assessed as reversal of scopolamine-induced AChE level in brain at 2.5 to 10 mg/kg, po administered once daily for 7 days followed by scopolamine challenge using acetylthiocholine iodide as substrate by Ellman's method; format: functional, organism-based
[8] = Acute toxicity in Swiss albino mouse assessed as convulsions by OECD 423 guideline based method; settings: in vivo
Acetylcholinesterase [9] = molecular target: T1, Acetylcholinesterase; assay: Competitive inhibition of human erythrocyte AChE assessed as effect on substrate V max at 10 nM to 10 uM using acetylthiocholine iodide as substrate preincubated for 10 mins followed by substrate addition and measured up to 6 mins by Lineweaver-Burk plot analysis
Mus musculus [10] = assay: In vivo antioxidant activity in albino mouse assessed as increase in scopolamine-induced catalase activity by measuring decrease in H2O2 level in brain at 2.5 to 10 mg/kg, po administered once daily for 7 days followed by scopolamine challenge; format: functional, organism-based
Mus musculus [11] = assay: In vivo antioxidant activity in albino mouse assessed as increase in scopolamine-induced SOD level in brain at 2.5 to 10 mg/kg, po administered once daily for 7 days followed by scopolamine challenge and measured for 2 mins at 30 secs interval; format: functional, organism-based
Mus musculus [12] = assay: Cognitive enhancing effect in albino mouse assessed as reversal of scopolamine-induced reduction in spontaneous alteration score at 2.5 to 10 mg/kg, po administered once daily for 7 days followed by scopolamine challenge for 5 mins prior to test and measured on day 7 by Y-maze test; format: functional, organism-based
Acetylcholinesterase [13] = molecular target: T1, Acetylcholinesterase; assay: (§1) Competitive inhibition of human erythrocyte AChE assessed as enzyme-inhibitor complex formation by measuring 1/s at 10 nM to 10 uM using acetylthiocholine iodide as substrate preincubated for 10 mins followed by substrate addition and measured up to 6 mins by Lineweaver-Burk plot analysis
[14] = Acute toxicity in Swiss albino mouse assessed as effect on feeding behavior by OECD 423 guideline based method; settings: in vivo
Acetylcholinesterase [15] = molecular target: T1, Acetylcholinesterase; assay: Competitive inhibition of human erythrocyte AChE assessed as […] in Km at 10 nM to 10 uM using acetylthiocholine iodide as substrate preincubated for 10 mins followed by substrate addition and measured up to 6 mins by Lineweaver-Burk plot analysis
Acetylcholinesterase [16] = molecular target: T1, Acetylcholinesterase; assay: Inhibition of human erythrocyte AChE-induced amyloid beta (1 to 42) (unknown origin) aggregation incubated for 48 hrs by fluorescence based thioflavin T assay
Acetylcholinesterase [17] = molecular target: T1, Acetylcholinesterase; assay: Competitive inhibition of human erythrocyte AChE at 10 nM to 10 uM using acetylthiocholine iodide as substrate preincubated for 10 mins followed by substrate addition and measured up to 6 mins by Lineweaver-Burk plot analysis
[18] = Acute toxicity in Swiss albino mouse assessed as mortality by OECD 423 guideline based method; settings: in vivo
Acetylcholinesterase [19] = molecular target: T1, Acetylcholinesterase; assay: as §1, with “intersection points on both axes of 1/Vmax and 1/[S]” for “1/s”
Mus musculus [20] = assay: Effect on total arm entries in scopolamine-induced spatial memory impairment in albino mouse model of amnesia at 2.5 to 10 mg/kg, po administered once daily for 7 days followed by scopolamine challenge for 5 mins prior to test and measured on day 7 by Y-maze test; format: ADME, organism-based; settings: in vivo
[21] = Acute toxicity in Swiss albino mouse assessed as diarrhea by OECD 423 guideline based method; settings: in vivo
Mus musculus [22] = assay: Reversal of scopolamine-induced amnesic effect in albino mouse assessed as increase in transfer latency time of retention trial at 2.5 to 10 mg/kg, po administered once daily for 7 days followed by scopolamine challenge and subsequent training session for 5 mins by passive avoidance test; format: functional, organism-based
Mus musculus [23] = assay: Reversal of scopolamine-induced amnesic effect in albino mouse assessed as increase in transfer latency time of acquisition trial at 2.5 to 10 mg/kg, po administered once daily for 7 days followed by scopolamine challenge and subsequent training session for 5 mins by passive avoidance test; format: functional, organism-based
[24] = Acute toxicity in Swiss albino mouse assessed as salivation by OECD 423 guideline based method; settings: in vivo
[25] = Acute toxicity in Swiss albino mouse assessed as induction of tremors by OECD 423 guideline based method; settings: in vivo
[26] = Acute toxicity in Swiss albino mouse assessed as effect on sleep by OECD 423 guideline based method; settings: in vivo
Mus musculus [27] = assay: In vivo antioxidant activity in albino mouse assessed as decrease in scopolamine-induced MDA level in brain at 2.5 to 10 mg/kg, po administered once daily for 7 days followed by scopolamine challenge by TBARS assay; format: functional, organism-based

Nc1cccc(Cl)c1Oc1ccc(CNc2ccc(O)cc2)cc1
IC50 (Cholinesterase): 9.36 µM | logD [1]: 3.15 | Papp at 18 h, 25 ug/ml [2]: 6.87 ×10⁻⁶ cm/s | IC50 (Acetylcholinesterase [3]): 8.81 µM

Nc1cccc(Cl)c1Oc1ccc(CNc2cccc(O)c2)cc1
IC50 (Cholinesterase): 9.45 µM | logD [1]: 3.01 | Papp at 18 h, 25 ug/ml [2]: 5.55 ×10⁻⁶ cm/s | IC50 (Acetylcholinesterase [3]): 7.23 µM

COc1cc(NCc2ccc(Oc3c(N)cccc3Cl)cc2)cc(OC)c1
IC50 (Cholinesterase): 6.42 µM | logD [1]: 3.56 | Papp at 18 h, 25 ug/ml [2]: 4.54 ×10⁻⁶ cm/s | IC50 (Acetylcholinesterase [3]): 2.88 µM

Nc1cccc(Cl)c1Oc1ccc(CNc2ccccc2)cc1
IC50 (Cholinesterase): > 10 µM | logD [1]: 3.54 | Papp at 18 h, 25 ug/ml [2]: 6.26 ×10⁻⁶ cm/s | IC50 (Acetylcholinesterase [3]): > 10 µM

COc1cc2c(cc1OC)C(=O)C(CC1CCN(Cc3ccccc3)CC1)C2 (configuration not stated)
Activity (Mus musculus [4]): Active | Activity (Mus musculus [5]): Active | Activity (Mus musculus [6]): Active

CN(C)CCCN1c2ccccc2Sc2ccc(Cl)cc21 [CHLORPROMAZINE]
Papp at 18 h, 25 ug/ml [2]: 5.8 to 6.5 ×10⁻⁶ cm/s

CC(=O)[C@H]1CC[C@H]2[C@@H]3CCC4=CC(=O)CC[C@]4(C)[C@H]3CC[C@]12C [PROGESTERONE]
Papp at 18 h, 25 ug/ml [2]: 9.3 to 13.8 ×10⁻⁶ cm/s

Nc1cccc(Cl)c1Oc1ccc(CNc2cc(Br)cc(Br)c2)cc1
IC50 (Cholinesterase): > 10 µM | logD [1]: 4.52 | Papp at 18 h, 25 ug/ml [2]: 1.45 ×10⁻⁶ cm/s | IC50 (Acetylcholinesterase [3]): > 10 µM

Nc1cccc(Cl)c1Oc1ccc(CNc2ccc(Br)cc2)cc1
IC50 (Cholinesterase): > 10 µM | logD [1]: 4.52 | Papp at 18 h, 25 ug/ml [2]: 3.48 ×10⁻⁶ cm/s | IC50 (Acetylcholinesterase [3]): > 10 µM

Nc1cccc(Cl)c1Oc1ccc(CNc2cccc(Cl)c2)cc1
IC50 (Cholinesterase): > 10 µM | logD [1]: 3.98 | Papp at 18 h, 25 ug/ml [2]: 5.65 ×10⁻⁶ cm/s | IC50 (Acetylcholinesterase [3]): > 10 µM

CCn1cc(C(=O)O)c(=O)c2cc(F)c(N3CCNC(C)C3)c(F)c21 (configuration not stated) [LOMEFLOXACIN]
Papp at 18 h, 25 ug/ml [2]: 0.31 to 1.1 ×10⁻⁶ cm/s

Nc1cccc(Cl)c1Oc1ccc(CNc2cc(Cl)cc(Cl)c2)cc1
IC50 (Cholinesterase): > 10 µM | logD [1]: 4.39 | Papp at 18 h, 25 ug/ml [2]: 1.56 ×10⁻⁶ cm/s | IC50 (Acetylcholinesterase [3]): > 10 µM

Nc1cccc(Cl)c1Oc1ccc(CNc2ccc(Cl)cc2)cc1
IC50 (Cholinesterase): > 10 µM | logD [1]: 4.65 | Papp at 18 h, 25 ug/ml [2]: 3.42 ×10⁻⁶ cm/s | IC50 (Acetylcholinesterase [3]): > 10 µM

COc1cccc(NCc2ccc(Oc3c(N)cccc3Cl)cc2)c1
IC50 (Cholinesterase): 8.25 µM | logD [1]: 3.98 | Papp at 18 h, 25 ug/ml [2]: 4.65 ×10⁻⁶ cm/s | IC50 (Acetylcholinesterase [3]): 5.65 µM

Nc1cccc(Cl)c1Oc1ccc(CNc2cccc(Br)c2)cc1
IC50 (Cholinesterase): > 10 µM | logD [1]: 4.05 | Papp at 18 h, 25 ug/ml [2]: 3.56 ×10⁻⁶ cm/s | IC50 (Acetylcholinesterase [3]): > 10 µM

COc1cc(NCc2ccc(Oc3c(N)cccc3Cl)cc2)cc(OC)c1OC
Activity (Mus musculus [7]): Dose-dependent effect | Activity [8]: Non-Toxic | Activity (Mus musculus [4]): Active | inhibition (Acetylcholinesterase [9]): Active | Activity (Mus musculus [10]): Active | IC50 (Cholinesterase): 8.41 µM | Activity (Mus musculus [11]): Active | Activity (Mus musculus [12]): Active | logD [1]: 3.78 | fold change (FC) (Acetylcholinesterase [13]): > 0 | Activity [14]: Non-Toxic | inhibition (Acetylcholinesterase [15]): Active | inhibition (Acetylcholinesterase [16]): Dose-dependent effect | Ki (Acetylcholinesterase [17]): 0.879 µM | Papp at 18 h, 25 ug/ml [2]: 6.35 ×10⁻⁶ cm/s | Activity [18]: Non-Toxic | Ratio (Acetylcholinesterase [19]): > 0 | Activity (Mus musculus [20]): Non-Toxic | Activity [21]: Non-Toxic | Activity (Mus musculus [22]): Dose-dependent effect | Activity (Mus musculus [23]): Active | Activity [24]: Non-Toxic | Activity [25]: Non-Toxic | Activity [26]: Non-Toxic | IC50 (Acetylcholinesterase [3]): 1.32 µM | Activity (Mus musculus [27]): Active

COc1ccc(NCc2ccc(Oc3c(N)cccc3Cl)cc2)cc1
IC50 (Cholinesterase): 9.97 µM | logD [1]: 3.33 | Papp at 18 h, 25 ug/ml [2]: 5.68 ×10⁻⁶ cm/s | IC50 (Acetylcholinesterase [3]): 5.24 µM

Cc1nnc2n1-c1ccc(Cl)cc1C(c1ccccc1)=NC2 [ALPRAZOLAM]
Papp at 18 h, 25 ug/ml [2]: 4.2 to 5.4 ×10⁻⁶ cm/s

NCCc1ccc(O)c(O)c1 [DOPAMINE]
Papp at 18 h, 25 ug/ml [2]: 0.18 to 0.2 ×10⁻⁶ cm/s
